Results: paper PMC10455339, “Combining the Peptide RWQWRWQWR and an Ethanolic Extract of Bidens pilosa Enhances the Activity against Sensitive and Resistant Candida albicans and C. auris Strains” (Journal of Fungi, 2023)
Several values for one entry are separate records, joined by “and”; a condition that tells them apart may be missing. Identical values can stand only once. Like-named read-outs stand apart in the source and are kept apart here. Ends that are not written are not given here.

Tests used:
C. albicans = conditions: cited from earlier work
Source text: Antifungal activity of other phenolic acids, such as chlorogenic acid, has been reported against Candida spp. resistant to FLC, generating a death process similar to apoptosis.

C. albicans SC5314 = experiment: microbe, parasite or virus in culture; format: cell-based, Candida albicans; conditions: n = 3; for MIC: CLSI M27-A4 modified, RPMI 1640, 37 °C, 48 h, MIC = 50% growth inhibition; for MFC: subculture on SDA 24 h 37 °C, MFC = eliminates 100% of growth
Procedure: (§1) For the determination of the MICs, the guidelines of the Clinical Laboratory Standards Institute (CLSI BMD-M27-A4) were used with some modifications. Serial dilutions were made, for peptides from 6.25 to 200 µg/mL and for extracts from 31.2 to 2000 µg/mL, with RPMI 1640 medium in a 96-well microdilution plate (100 µL), and then 100 µL of the adjusted inoculum (0.5–2.5 × 10^3 cells/mL) was added and incubated at 37 °C, and visual and spectrophotometric reading (595 nm) was performed at 48 h. Controls: growth control in RPMI or DMSO, control with a known antifungal: FLC, C. albicans SC5314 (1 µg/mL), C. albicans 256 (64 µg/mL), C. auris 435 (8 µg/mL), and C. auris 537 (128 µg/mL), sterility controls correspond to RPMI medium and SS. The MIC was defined as the minimum concentration of peptide or extract that inhibited 50% of growth compared to the control. To determine the minimal fungicidal concentration (MFC), from the concentrations where no growth was observed, including the controls, a subculture was made on SDA and incubated for 24 h at 37 °C. The MFC was defined as the minimum concentration of peptide or extract that eliminated 100% of the growth compared to the control (n = 3).

C. auris 537-PUJ-HUSI = experiment: Antifungal activity (MIC/MFC), broth microdilution; format: cell-based, Candida auris; conditions: FLC- and AmB-resistant isolate, n = 3
Procedure: as §1

C. auris 435-PUJ-HUSI = experiment: Antifungal activity (MIC/MFC), broth microdilution; format: cell-based, Candida auris; conditions: FLC-sensitive isolate, n = 3; for MIC: CLSI M27-A4 modified, RPMI 1640, 37 °C, 48 h, MIC = 50% growth inhibition; for MFC: subculture on SDA 24 h 37 °C, MFC = eliminates 100% of growth
Procedure: as §1

C. albicans 256-PUJ-HUSI = experiment: Antifungal activity (MIC/MFC), broth microdilution; format: cell-based, Candida albicans; conditions: FLC-resistant isolate, n = 3
Procedure: as §1

[1] = reported against other C. albicans strains
[2] = reported against C. albicans strains
[3] = CLSI M27-A4 modified, RPMI 1640, 37 °C, 48 h, MIC = 50% growth inhibition
[4] = subculture on SDA 24 h 37 °C, MFC = eliminates 100% of growth

Substance: FKCRRWQWRMKKLGA [bLF (or LFB) 17–30, short peptide derived from LfcinB, …]
- MIC (C. albicans; [1]): 5 to 10 µM

Substance: GAPSITCVRRAF [Peptide 3, short peptide derived from LfcinB, …]
- MIC (C. albicans; [1]): 635 µM

Substance: Lfcin B-18-42: short peptide derived from LfcinB (FKCRRWQWRMKKLGAPSITCVRRAF; ends and bridges not checked; cysteine pairing not given here; UniProt P24627 36-60, looked up, fragment)
- MIC (C. albicans; [2]): 100 µg/mL

Substance: LfcinB: Bovine lactoferricin, AMP derived from bovine lactoferrin (FKCRRWQWRMKKLGAPSITCVRRAF; ends and bridges not checked; cysteine pairing not given here; UniProt P24627 36-60, looked up)
- MIC (C. albicans; [2]): 0.8 to 400 µg/mL

Substance: RRWQWRMKK [Lfcin B-9, short peptide derived from LfcinB, …]
- MIC (C. albicans; [2]): 25,000–32,000 μg/mL

Substance: RWQWHomoFQWR [[^5HomoF]-R-1-R, RWQWHomoFQWR, position 5 replaced by Homophenylalanine]
- MIC (C. albicans SC5314): 200 μg/mL and 134 μM
- MFC (C. albicans SC5314): > 200 μg/mL and > 134 μM
- MIC (C. auris 537-PUJ-HUSI; [3]): > 200 μg/mL and > 134 μM
- MFC (C. auris 537-PUJ-HUSI; [4]): > 200 μg/mL and > 134 μM
- MIC (C. auris 435-PUJ-HUSI): > 200 μg/mL and > 134 μM
- MFC (C. auris 435-PUJ-HUSI): > 200 μg/mL and > 134 μM
- MIC (C. albicans 256-PUJ-HUSI; [3]): 200 μg/mL and 134 μM
- MFC (C. albicans 256-PUJ-HUSI; [4]): > 200 μg/mL and > 134 μM

Substance: RWQWNalQWR [[^5Nal]-R-1-R, RWQWNalQWR, position 5 replaced by Naphthylalanine]
- MIC (C. albicans SC5314): > 200 μg/mL and > 131 μM
- MFC (C. albicans SC5314): > 200 μg/mL and > 131 μM
- MIC (C. auris 435-PUJ-HUSI): > 200 μg/mL and > 131 μM
- MFC (C. auris 435-PUJ-HUSI): > 200 μg/mL and > 131 μM

Substance: RWQWRM [Peptide 5, short peptide derived from LfcinB, RWQWRM]
- MIC (C. albicans; [1]): 500 µM
